From the NIST ThermoML archive (doi:10.1016/j.jct.2005.01.017)
Numbers after ± are expanded uncertainties.

Experiment: xn = mol fraction of the nth substance listed
Details: 101 kPa, Liquid

CC1COC(=O)O1 (configuration not stated) [4-methyl-1,3-dioxolan-2-one] + Cc1ccc(C)cc1
Details	mass density [kg/m3]
293.15 K, x2 = 0	1200.25 ± 40
293.15 K, x2 = 0.0487	1177.59 ± 40
293.15 K, x2 = 0.1238	1144.26 ± 40
293.15 K, x2 = 0.1793	1120.81 ± 40
293.15 K, x2 = 0.2482	1093.01 ± 40
293.15 K, x2 = 0.3125	1068.33 ± 40
293.15 K, x2 = 0.381	1043.26 ± 40
293.15 K, x2 = 0.4371	1023.64 ± 40
293.15 K, x2 = 0.4972	1003.44 ± 40
293.15 K, x2 = 0.5622	982.49 ± 40
293.15 K, x2 = 0.6329	960.71 ± 40
293.15 K, x2 = 0.6938	942.7 ± 40
293.15 K, x2 = 0.7421	928.88 ± 40
293.15 K, x2 = 0.8023	912.2 ± 40
293.15 K, x2 = 0.8592	896.93 ± 40
293.15 K, x2 = 0.9247	879.91 ± 40
303.15 K, x2 = 0	1180.56 ± 40
303.15 K, x2 = 0.0523	1157.1 ± 40
303.15 K, x2 = 0.123	1126.84 ± 40
303.15 K, x2 = 0.1836	1102.14 ± 40
303.15 K, x2 = 0.2381	1080.85 ± 40
303.15 K, x2 = 0.3263	1048.15 ± 40
303.15 K, x2 = 0.3741	1031.29 ± 40
303.15 K, x2 = 0.4233	1014.5 ± 40
303.15 K, x2 = 0.4794	996.06 ± 40
303.15 K, x2 = 0.5573	971.57 ± 40
303.15 K, x2 = 0.6233	951.77 ± 40
303.15 K, x2 = 0.6843	934.2 ± 40
303.15 K, x2 = 0.7538	914.94 ± 40
303.15 K, x2 = 0.8148	898.66 ± 40
303.15 K, x2 = 0.8731	883.59 ± 40
303.15 K, x2 = 0.9362	867.79 ± 40
313.15 K, x2 = 0	1161.28 ± 40
313.15 K, x2 = 0.0543	1137.8 ± 40
313.15 K, x2 = 0.1173	1111.72 ± 40
313.15 K, x2 = 0.1598	1094.8 ± 40
313.15 K, x2 = 0.2294	1068.21 ± 40
313.15 K, x2 = 0.2849	1047.95 ± 40
313.15 K, x2 = 0.3598	1021.87 ± 40
313.15 K, x2 = 0.4381	996.03 ± 40
313.15 K, x2 = 0.482	982.14 ± 40
313.15 K, x2 = 0.5359	965.64 ± 40
313.15 K, x2 = 0.6021	946.14 ± 40
313.15 K, x2 = 0.6721	926.39 ± 40
313.15 K, x2 = 0.7359	909.11 ± 40
313.15 K, x2 = 0.8243	886.17 ± 40
313.15 K, x2 = 0.8817	871.85 ± 40
313.15 K, x2 = 0.9274	860.74 ± 40
323.15 K, x2 = 0	1142.43 ± 40
323.15 K, x2 = 0.0623	1116.49 ± 40
323.15 K, x2 = 0.1246	1091.71 ± 40
323.15 K, x2 = 0.1822	1069.79 ± 40
323.15 K, x2 = 0.2483	1045.74 ± 40
323.15 K, x2 = 0.3193	1021.16 ± 40
323.15 K, x2 = 0.3719	1003.72 ± 40
323.15 K, x2 = 0.4389	982.42 ± 40
323.15 K, x2 = 0.5032	962.87 ± 40
323.15 K, x2 = 0.5579	946.88 ± 40
323.15 K, x2 = 0.6234	928.45 ± 40
323.15 K, x2 = 0.6972	908.56 ± 40
323.15 K, x2 = 0.7529	894.11 ± 40
323.15 K, x2 = 0.8137	878.84 ± 40
323.15 K, x2 = 0.8724	864.57 ± 40
323.15 K, x2 = 0.9378	849.15 ± 40
333.15 K, x2 = 0	1123.99 ± 40
333.15 K, x2 = 0.0598	1099.91 ± 40
333.15 K, x2 = 0.1387	1069.71 ± 40
333.15 K, x2 = 0.1738	1056.82 ± 40
333.15 K, x2 = 0.2384	1033.93 ± 40
333.15 K, x2 = 0.3283	1003.8 ± 40
333.15 K, x2 = 0.3918	983.64 ± 40
333.15 K, x2 = 0.452	965.32 ± 40
333.15 K, x2 = 0.5138	947.26 ± 40
333.15 K, x2 = 0.5821	928.14 ± 40
333.15 K, x2 = 0.6518	909.44 ± 40
333.15 K, x2 = 0.7139	893.44 ± 40
333.15 K, x2 = 0.783	876.29 ± 40
333.15 K, x2 = 0.8346	863.9 ± 40
333.15 K, x2 = 0.8814	852.95 ± 40
333.15 K, x2 = 0.9471	837.99 ± 40
343.15 K, x2 = 0	1105.98 ± 40
343.15 K, x2 = 0.0643	1081 ± 40
343.15 K, x2 = 0.1241	1058.78 ± 40
343.15 K, x2 = 0.1839	1037.51 ± 40
343.15 K, x2 = 0.245	1016.69 ± 40
343.15 K, x2 = 0.3183	992.89 ± 40
343.15 K, x2 = 0.3891	971.03 ± 40
343.15 K, x2 = 0.4498	953.11 ± 40
343.15 K, x2 = 0.5021	938.24 ± 40
343.15 K, x2 = 0.5721	919.11 ± 40
343.15 K, x2 = 0.6592	896.46 ± 40
343.15 K, x2 = 0.7134	882.94 ± 40
343.15 K, x2 = 0.7635	870.82 ± 40
343.15 K, x2 = 0.8247	856.45 ± 40
343.15 K, x2 = 0.8848	842.78 ± 40
343.15 K, x2 = 0.9522	827.92 ± 40
353.15 K, x2 = 0	1088.38 ± 40
353.15 K, x2 = 0.0505	1069.32 ± 40
353.15 K, x2 = 0.1184	1044.77 ± 40
353.15 K, x2 = 0.1739	1025.56 ± 40
353.15 K, x2 = 0.2289	1007.26 ± 40
353.15 K, x2 = 0.2847	989.41 ± 40
353.15 K, x2 = 0.3571	967.26 ± 40
353.15 K, x2 = 0.4248	947.53 ± 40
353.15 K, x2 = 0.4972	927.39 ± 40
353.15 K, x2 = 0.5539	912.26 ± 40
353.15 K, x2 = 0.6198	895.34 ± 40
353.15 K, x2 = 0.674	881.93 ± 40
353.15 K, x2 = 0.7354	867.23 ± 40
353.15 K, x2 = 0.7842	855.91 ± 40
353.15 K, x2 = 0.8527	840.5 ± 40
353.15 K, x2 = 0.9247	824.87 ± 40
